Patent US20050009124A1, “Assays for detection of phosphoinositide kinase and phosphatase activity” (Echelon Biosciences Incorporated, priority 2001, published 2005)
Like-named read-outs stand apart in the source and are kept apart here. One block for each molecule: values may come before it.

Experiments:
GST-Grp1 = biological target: T1, GST-Grp1 (Homo sapiens, UniProt O43739); experiment: Competition fluorogenic assay with GST-Grp1/GS-QSY 7 complex; type: binding; settings: probe 10 nM, GST-Grp1 0.5 μM, GS-QSY 7 2.5 μM, increasing competitor
T1 sequence (O43739 1-400): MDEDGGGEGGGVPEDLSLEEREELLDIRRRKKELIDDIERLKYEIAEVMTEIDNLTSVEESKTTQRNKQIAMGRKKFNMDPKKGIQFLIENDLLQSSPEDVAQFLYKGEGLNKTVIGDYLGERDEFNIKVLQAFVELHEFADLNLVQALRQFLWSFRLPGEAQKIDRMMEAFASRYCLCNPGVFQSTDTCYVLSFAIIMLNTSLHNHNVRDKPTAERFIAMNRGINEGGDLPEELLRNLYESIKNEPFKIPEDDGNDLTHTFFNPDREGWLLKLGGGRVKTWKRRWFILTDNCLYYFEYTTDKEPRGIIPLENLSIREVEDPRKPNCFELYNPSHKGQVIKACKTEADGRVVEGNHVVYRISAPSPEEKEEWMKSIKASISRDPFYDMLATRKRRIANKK
Experimental: The fluorogenic assays using a glutathione quencher conjugate (e.g. GS-QSY 7) were set up in a black 384-well plate. A combination of the assay components described in detail below, including GST-Grp1, BODIPY®-FL-PI(3,4,5)P3, GS-QSY7, and phosphoinositide competitors, were incubated in the dark for 1 hour. The total reaction volume was either 25 or 50 μl in PBS (pH 7.4). The plate was then transferred to an Alpha Fusion plate reader and read with a 485/520 nm filter.
This fluorogenic assay was also specific.

GST-TAPP1 = GST-TAPP1 (Homo sapiens, UniProt Q9HB21); experiment: Competitive FP assay, displacement of BODIPY-TMR-PI(3,4)P2 tracer from GST-TAPP1; type: binding
Sequence of GST-TAPP1 (Q9HB21 whole entry): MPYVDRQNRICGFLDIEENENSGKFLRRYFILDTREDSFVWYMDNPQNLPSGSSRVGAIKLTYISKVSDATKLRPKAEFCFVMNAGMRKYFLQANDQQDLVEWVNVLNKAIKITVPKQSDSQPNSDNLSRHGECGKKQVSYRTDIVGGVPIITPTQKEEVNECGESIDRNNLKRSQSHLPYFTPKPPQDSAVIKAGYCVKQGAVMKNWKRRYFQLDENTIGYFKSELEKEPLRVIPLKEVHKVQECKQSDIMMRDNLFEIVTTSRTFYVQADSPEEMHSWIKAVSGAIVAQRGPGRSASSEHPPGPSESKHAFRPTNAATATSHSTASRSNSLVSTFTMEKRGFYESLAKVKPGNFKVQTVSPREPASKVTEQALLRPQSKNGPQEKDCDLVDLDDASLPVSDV
Experimental: (§1) In order to use these reagents in a competitive FP assay, unlabeled phosphoinositide products of an enzymatic reaction must be able to successfully compete with the labeled tracer for interaction with the binding proteins. In addition, the level of cross-reactivity of binding proteins with the phosphoinositides used as enzyme substrates should be minimal. To examine the suitability of these phosphoinositide binding proteins for this application, competition assays were performed using optimal amounts of lipid binding proteins and fluorescent tracers, mixed with increasing amounts of diC8-phosphoinositide competitors.
Similar competition assays were performed to examine the selectivity and sensitivity of PI(3,4)P2 detection by GST-TAPP1 (FIG. 10). In these assays, the concentrations of GST-TAPP1 and the fluorescently labeled phosphoinositide were held constant as the concentration of unlabeled lipid competitor was increased. […] In implementing these assays, the initial amount of PI(3,4,5)P3 substrate should be kept low enough to minimize competition.

[1] = tested on: PI(4,5)P2-specific LRP derived from PLCδ; experiment: AlphaScreen binding and competition with PI(4,5)P2-specific LRP; settings: biotinylated PI(4,5)P2 and PLCδ kept constant
Experimental: The present invention provides ALPHAScreen™ assays to detect specific binding and competition of phosphoinositide diphosphates using antibodies or LRPs. This approach can be used in competitive assays for the detection of PI(3,4)P2 and PI(4,5)P2 produced by lipid phosphatase or kinase activity. […] Increasing amounts of unlabeled PI(4,5)P2 or PI(3,4,5)P3 were added while levels of PLCδ and PI(4,5)P2 were kept constant. PI(4,5)P2 competition is approximately 90-fold greater than PI(3,4,5)P3 competition, indicating a high degree of specificity for recognition of PI(4,5)P2.

SMQ-Grp1 = biological target: T2, SMQ-Grp1 (Homo sapiens, UniProt O43739); experiment: Competitive dequenching fluorogenic assay with SMQ-Grp1; type: binding; settings: for change of fluorescence signal (competition): increasing amounts of competitor, compared with diC8 PI(3,4,5)P3
T2 construct: small molecular quencher (Dabcyl, QSY 7 or QSY 9); made in house
T2 sequence (O43739 1-400): T1 sequence (O43739 1-400)
Experimental: The fluorogenic assays were set up in a black 384-well plate. The combination of 100 nM, 10 nM and 1 nM of SMQ-Grp1 conjugate was incubated with 100 nM, 50 nM and 25 nM BODIPY®-FL-labeled PI(3,4,5)P3. The total assay volume was […] in a PBS buffer at a pH of 7.5. The assay mixture was incubated in the dark for one hour at 25° C. The plate was then transferred to an Alpha Fusion plate reader and read with a 485/520 nm filter. […] For example, if BODIPY®-FL-PI(3,4,5)P3 is fixed at 25 nM, increasing the amount of Dabcyl-Grp1 conjugate (from 1 nM to 100 nM) caused decreasing amounts of fluorescence (FIG. 24). Similar fluorescence quenching profiles were shown for QSY 7-Grp1 and QSY 9-Grp1.
The quenching effects of BODIPY®-FL-PI(3,4,5)P3 by SMQ-Grp1 were specific. diC8 PI(3,4,5)P3 as a competitor antagonized the fluorescence quenching effect of BODIPY®-FL-PI(3,4,5)P3 by SMQ-Grp1 in a dose-response manner. diC8 PI(3,4,5)P3 was used at varying concentrations to compete with BODIPY®-FL-PI(3,4,5)P3 for binding to the SMQ-Grp1 conjugate. […] In each bar graph in FIG. 25, from the right to the left, the bars show the fluorescence reading of PBS as the background, the diC8 PI(3,4,5)P3 only, the SMQ-Grp1 conjugate only, BODIPY®-FL-PI(3,4,5)P3 only, Grp1-SMQ plus BODIPY®-FL-PI(3,4,5)P3, Grp1-SMQ plus BODIPY®-FL-PI(3,4,5)P3 with 10 pmol of diC8 PI(3,4,5)P3 as the competitor, Grp1-SMQ plus BODIPY®-FL-PI(3,4,5)P3 with 100 pmol of diC8 PI(3,4,5)P3 as the competitor, Grp1-SMQ plus BODIPY®-FL-PI(3,4,5)P3 with 1000 pmol of diC8 PI(3,4,5)P3 as the competitor, and Grp1-SMQ plus BODIPY®-FL-PI(3,4,5)P3 with 10000 pmol of diC8 PI(3,4,5)P3 as competitor. […]
Fluorogenic assays were also used to compare competition of diC8 PI(3,4,5)P3 to PI(4,5)P2 and PI(3)P. With increasing amounts of PI(3,4,5)P3 the signal begins to increase, indicating competition, whereas as PI(4,5)P2 and PI(3)P show little change, indicating less competition. […] The production (or presence) of PI(3,4,5)P3 in this assay system corresponds to the elevation of the fluorescence signal.

GST-GRP1-PH = biological target: T3, GST-GRP1-PH (Homo sapiens, UniProt O43739); experiment: Competitive FP assay, displacement of fluorescent tracer from GST-GRP1-PH; type: binding; settings: displacement of BODIPY®-TMR-I(1,3,4,5)P4 tracer
T3 construct: The PH domain of GRP1 (general receptor for phosphoinositides) was used as a detector for PI(3,4,5)P3
T3 sequence (O43739 264-381 limits assumed): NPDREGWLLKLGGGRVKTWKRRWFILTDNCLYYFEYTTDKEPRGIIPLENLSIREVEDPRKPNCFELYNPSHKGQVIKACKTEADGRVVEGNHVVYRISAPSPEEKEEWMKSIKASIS
Experimental: as §1
The sensitivity of this approach for detecting conversion of PI(4,5)P2 to PI(3,4,5)P3 was evaluated using GST-GRP1-PH protein and FAM and BODIPY®-TMR labeled tracers. Competition assays in which both diC8-PI(3,4,5)P3 and diC8-PI(4,5)P2 were added at increasing concentrations were performed.

[2] = Fluorogenic assay, quenching of BODIPY-FL-PI(3,4,5)P3 by SMQ-Grp1 conjugates; type: binding
Source text: The chemical modification of LRPs, e.g. Grp1, a PI(3,4,5)P3 binder, with small molecular quenchers (SMQ) has been thoroughly studied in this invention. Three SMQs, Dabcyl-SE (4-((4-(dimethylamino)phenyl)azo)benzoic acid, succinimidyl ester), QSY 7-SE (9-[2-[[4-[[(2,5-dioxo-1-pyrrolidinyl)oxy]carbonyl]-1-piperidinyl]sulfonyl]phenyl]-3,6-bis(methylphenylamino)-, chloride) and QSY 9-SE (QSY® 9 carboxylic acid, succinimidyl ester, C43H39ClN4O13S3), with diverse structures, spectral properties, hydrophobicity and solubility properties, were coupled to Grp1. Specifically, SMQ-modified Grp1 still retains its binding activity and quenches the fluorescence of BODIPY®-FL labeled PI(3,4,5)P3. With a fixed amount of BODIPY®-FL-PI(3,4,5)P3 in solution, increasing the amount of SMQ-Grp1 caused decreasing fluorescence of the PI(3,4,5)P3 fluorescent probes. At a ratio of 2:1 (QSY 7-Grp1:BODIPY®-FL-PI(3,4,5)P3), QSY 7-Grp1 quenched up to 70% of the fluorescence intensity of BODIPY®-FL PI(3,4,5)P3.
The fluorogenic assays were set up in a black 384-well plate. […] The plate was then transferred to an Alpha Fusion plate reader and read with a 485/520 nm filter. […] For example, if BODIPY®-FL-PI(3,4,5)P3 is fixed at 25 nM, increasing the amount of Dabcyl-Grp1 conjugate (from 1 nM to 100 nM) caused decreasing amounts of fluorescence (FIG. 24). […]

- IC50 (GST-TAPP1; read-out: IC50): 165 nM
Molecule: CCCCCCCC(=O)OC[C@H](COP(=O)(O)O[C@H]1[C@H](O)[C@@H](O)[C@H](OP(=O)(O)O)[C@@H](OP(=O)(O)O)[C@H]1O)OC(=O)CCCCCCC [diC8-PI(3,4)P2]

- competition relative to PI(3,4,5)P3 competition [1]: approximately 90 fold
- change of fluorescence signal (competition) (SMQ-Grp1): little change
Molecule: PI(4,5)P2

- IC50 (GST-GRP1-PH): 218 nM
- IC50 (GST-TAPP1; predicted, read-out: predicted IC50): 1510 nM
- fluorescence restored, of the original (SMQ-Grp1; 10000 pmol competitor, Dabcyl-Grp1 100 nM, probe 50 nM): up to 70%
Molecule: CCCCCCCC(=O)OC[C@H](COP(=O)(O)OC1[C@H](O)[C@H](OP(=O)(O)O)C(OP(=O)(O)O)[C@H](OP(=O)(O)O)[C@H]1O)OC(=O)CCCCCCC (some centres unmarked) [diC8-PI(3,4,5)P3]

- change of fluorescence signal (competition) (SMQ-Grp1): little change
Molecule: PI(3)P

More lines, now with the values behind:

Molecule: CCCCCCCCCCCCCCCC(=O)OC[C@H](COP(=O)(O)OC1[C@H](O)[C@H](OP(=O)(O)O)C(OP(=O)(O)O)[C@H](OP(=O)(O)O)[C@H]1O)OC(=O)CCCCCCCCCCCCCCC (some centres unmarked) [DiC16 PI(3,4,5)P3]
- effect on fluorescence of BODIPY®-FL PI(3,4,5)P3 (competition) (GST-Grp1): restored the fluorescence

Molecule: CCCCCCCCCCCCCCCC(=O)OC[C@H](COP(=O)(O)O[C@@H]1[C@H](O)[C@H](O)[C@@H](OP(=O)(O)O)[C@H](OP(=O)(O)O)[C@H]1O)OC(=O)CCCCCCCCCCCCCCC [diC16 PI(4,5)P2]
- effect on fluorescence of BODIPY®-FL PI(3,4,5)P3 (competition) (GST-Grp1): only marginally increased the fluorescence at higher concentrations

B1: QSY 7-Grp1: Grp1, a PI(3,4,5)P3 binder, coupled to small molecular quencher QSY 7-SE (conjugate, UniProt O43739 1-400, looked up)
Cytohesin-3: T1 sequence (O43739 1-400)
modifications: QSY 7 quencher
- quenching of fluorescence intensity of BODIPY®-FL PI(3,4,5)P3 ([2]; ratio 2:1 (QSY 7-Grp1:BODIPY®-FL-PI(3,4,5)P3)): up to 70%

B2: Dabcyl-Grp1 conjugate: Grp1, a PI(3,4,5)P3 binder, coupled to small molecular quencher Dabcyl-SE (conjugate, UniProt O43739 1-400, looked up)
Cytohesin-3: T1 sequence (O43739 1-400)
modifications: Dabcyl quencher
- quenching of fluorescence of BODIPY®-FL-PI(3,4,5)P3 ([2]; SMQ-Grp1 100 nM, BODIPY®-FL-PI(3,4,5)P3 50 nM): ~70%
